From BigSolDB 2.1

CCCCCCOC(=O)NC(=N)c1ccc(NCc2nc3cc(C(=O)N(CCC(=O)OCC)c4ccccn4)ccc3n2C)cc1.CS(=O)(=O)O
solubility (mole fraction) (in DMAc, 287.37 K): 0.0228
solubility (mole fraction) (in DMAc, 292.2 K): 0.0241
solubility (mole fraction) (in DMAc, 297.95 K): 0.0264
solubility (mole fraction) (in DMAc, 303.97 K): 0.0285
solubility (mole fraction) (in DMAc, 308.88 K): 0.0311
solubility (mole fraction) (in DMAc, 313.59 K): 0.0338
solubility (mole fraction) (in DMAc, 318.4 K): 0.0372
solubility (mole fraction) (in DMAc, 323.39 K): 0.0403
solubility (mole fraction) (in DMF, 287.37 K): 0.0217
solubility (mole fraction) (in DMF, 292.2 K): 0.0229
solubility (mole fraction) (in DMF, 297.95 K): 0.0246
solubility (mole fraction) (in DMF, 303.97 K): 0.0269
solubility (mole fraction) (in DMF, 308.88 K): 0.0294
solubility (mole fraction) (in DMF, 313.59 K): 0.0318
solubility (mole fraction) (in DMF, 318.4 K): 0.035
solubility (mole fraction) (in DMF, 323.39 K): 0.0385
solubility (mole fraction) (in ethanol, 287.37 K): 0.00092
solubility (mole fraction) (in ethanol, 292.2 K): 0.00116
solubility (mole fraction) (in ethanol, 297.95 K): 0.00153
solubility (mole fraction) (in ethanol, 303.97 K): 0.00208
solubility (mole fraction) (in ethanol, 308.88 K): 0.00267
solubility (mole fraction) (in ethanol, 313.59 K): 0.00343
solubility (mole fraction) (in ethanol, 318.4 K): 0.00458
solubility (mole fraction) (in ethanol, 323.39 K): 0.00626
solubility (mole fraction) (in ethylene glycol, 287.37 K): 0.00425
solubility (mole fraction) (in ethylene glycol, 292.2 K): 0.00524
solubility (mole fraction) (in ethylene glycol, 297.95 K): 0.00619
solubility (mole fraction) (in ethylene glycol, 303.97 K): 0.00786
solubility (mole fraction) (in ethylene glycol, 308.88 K): 0.00961
solubility (mole fraction) (in ethylene glycol, 313.59 K): 0.0112
solubility (mole fraction) (in ethylene glycol, 318.4 K): 0.0143
solubility (mole fraction) (in ethylene glycol, 323.39 K): 0.0179
solubility (mole fraction) (in methanol, 287.37 K): 0.0158
solubility (mole fraction) (in methanol, 292.2 K): 0.018
solubility (mole fraction) (in methanol, 297.95 K): 0.0224
solubility (mole fraction) (in methanol, 303.97 K): 0.0274
solubility (mole fraction) (in methanol, 308.88 K): 0.0333
solubility (mole fraction) (in methanol, 313.59 K): 0.0389
solubility (mole fraction) (in methanol, 318.4 K): 0.0471
solubility (mole fraction) (in methanol, 323.39 K): 0.055
